Measurements published in ChEMBL document CHEMBL1122843, “Opioid receptor interactions and conformations of the 6 alpha and 6 beta epimers of oxymorphamine. Solid-state conformation of 6 alpha-oxymorphamine” (J Med Chem, 1985).
pIC50: −log10 of the molar value.

Assays:
[1] = molecular target: Delta-type opioid receptor (Rattus norvegicus, UniProt P33533); test: Compound was evaluated for binding affinity against Opioid receptor delta 1 in rat brain membranes using [125I]-D-Ala2-Leu5-enkephalin; type: cell membranes; conditions: read-out: I50
Chain of Delta-type opioid receptor (P33533 whole entry): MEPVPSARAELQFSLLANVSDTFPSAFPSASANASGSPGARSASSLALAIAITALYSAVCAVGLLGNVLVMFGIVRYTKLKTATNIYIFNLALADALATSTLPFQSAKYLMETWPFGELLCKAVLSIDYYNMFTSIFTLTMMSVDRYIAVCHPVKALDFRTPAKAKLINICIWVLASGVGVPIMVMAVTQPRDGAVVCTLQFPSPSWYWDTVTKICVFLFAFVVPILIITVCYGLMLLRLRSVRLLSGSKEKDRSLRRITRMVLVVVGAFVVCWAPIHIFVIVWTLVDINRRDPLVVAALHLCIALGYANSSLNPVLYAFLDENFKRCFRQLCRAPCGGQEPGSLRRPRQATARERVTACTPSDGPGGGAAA

Mu-type opioid receptor = Mu-type opioid receptor (Rattus norvegicus, UniProt P33535); test: Compound was evaluated for binding affinity against Opioid receptor mu 1 in rat brain membranes using [125I]-Tyr-D-Ala-Gly-NMePhe-Met; type: cell membranes; conditions: read-out: I50
Chain of Mu-type opioid receptor (P33535 whole entry): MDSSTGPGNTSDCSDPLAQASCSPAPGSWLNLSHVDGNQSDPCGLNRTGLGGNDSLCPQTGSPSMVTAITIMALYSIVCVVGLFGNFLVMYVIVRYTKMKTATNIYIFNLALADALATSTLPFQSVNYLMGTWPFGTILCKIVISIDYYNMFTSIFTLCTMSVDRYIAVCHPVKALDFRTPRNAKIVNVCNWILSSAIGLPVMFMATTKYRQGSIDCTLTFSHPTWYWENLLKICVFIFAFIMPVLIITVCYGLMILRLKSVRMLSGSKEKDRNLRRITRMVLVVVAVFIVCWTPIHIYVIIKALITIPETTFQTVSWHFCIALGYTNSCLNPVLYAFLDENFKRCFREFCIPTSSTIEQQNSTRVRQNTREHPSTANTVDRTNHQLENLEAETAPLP

Work on CN1CC[C@]23c4c5ccc(O)c4O[C@H]2[C@@H](N)CC[C@@]3(O)[C@H]1C5 yielded a pIC50 [1] of 6.60 and a pIC50 (Mu-type opioid receptor) of 7.89.
With CN1CC[C@]23c4c5ccc(O)c4O[C@H]2[C@H](N)CC[C@@]3(O)[C@H]1C5 the pIC50 [1] was 6.96 and the pIC50 (Mu-type opioid receptor) was 8.05.
